The source of these data is paper PMC5732040 (Cellular signalling, 2017).

Counter-ions that a name gives are not always drawn. Like-named read-outs stand apart in the source and are kept apart here.

Data set [1] addresses T1, human A2AR (Homo sapiens, UniProt P29274). The data set can be described thus: Cell-based cAMP assay in CHO-hA2AR cells. The following applies: 10 min. For orientation: Cyclic AMP is a second messenger, typically raised through Gs and lowered through Gi signalling.
For the next data set, the target named is hA2AR (Homo sapiens, UniProt P29274). The data set is described as follows: Cell-free membrane-based cAMP assay. It is filed as biochemical. The following applies: HEK293-hA2AR cytosol-free membrane preparations, ADA 3 U/ml, 30 min, NBMPR 0–300 μM.
Sequence of hA2AR (P29274 whole entry): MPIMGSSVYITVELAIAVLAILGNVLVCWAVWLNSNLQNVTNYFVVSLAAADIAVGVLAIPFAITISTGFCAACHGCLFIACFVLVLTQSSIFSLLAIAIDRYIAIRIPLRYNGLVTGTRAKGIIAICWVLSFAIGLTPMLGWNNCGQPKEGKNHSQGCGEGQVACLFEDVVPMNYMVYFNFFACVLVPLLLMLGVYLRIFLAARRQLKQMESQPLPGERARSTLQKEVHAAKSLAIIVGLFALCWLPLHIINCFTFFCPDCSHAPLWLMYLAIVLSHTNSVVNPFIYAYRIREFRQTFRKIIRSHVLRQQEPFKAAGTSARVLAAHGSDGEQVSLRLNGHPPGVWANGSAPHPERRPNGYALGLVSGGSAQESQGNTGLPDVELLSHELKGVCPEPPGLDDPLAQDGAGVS
Data set [2] deals with CCL4 production by LPS-stimulated splenic monocytes. The data set can be described thus: Cytokine assay: LPS-stimulated CCL4 production by splenic monocytes. It is filed as cell-based, mouse. To be noted: absence of ADA, single agents.
The subject of data set [3] is CCL3 production by LPS-stimulated splenic monocytes. The data set can be described thus: Cytokine assay: LPS-stimulated CCL3 production by splenic monocytes. It is filed as cell-based, mouse. To be noted: A2AR intact and deficient monocytes, absence of ADA.
Data set [4] concerns the target T1, human A2AR. The data set is described as follows: ERK1/2 phosphorylation assay in CHO-hA2AR cells. To be noted: inosine 1000 μM, AEA061 10 μM, 10 min.
For data set [5] the following is noted: cited from earlier work.
For data set [6], the system named is TNF-α production by LPS-stimulated splenic monocytes. The data set is described as follows: Cytokine assay: LPS-stimulated TNF-α production by splenic monocytes. It is filed as cell-based, mouse. To be noted: for inhibition at 30 µM / inhibition at 100 µM: Mus musculus, Monocyte, 4 h; for inhibition of TNF-α production: CGS 21680 alone.

T1 sequence (P29274 whole entry): as above

Take `O=[N+]([O-])c1ccc(CSc2ncnc3c2ncn3[C@@H]2O[C@H](CO)[C@@H](O)[C@H]2O)cc1` [NBMPR, 6-S-[(4-Nitrophenyl)methyl]-6-thioinosine]: the results for the cAMP production result at human A2AR [1] (without ADA) and on hA2AR were “activated A2AR-mediated cAMP production” and “dose-dependently increased cAMP production”, respectively.
Usually half-life stands for the time in which the quantity being followed falls by half. As to `OC[C@H]1O[C@@H](n2cnc3c(O)ncnc32)[C@H](O)[C@@H]1O` [inosine], on human A2AR [1] (in the presence of ADA 3 U/ml), the cAMP production entry is recorded as “increased cAMP production”. Also, the “inhibition of CCL4 production” value in data set [2] was “individually inhibited CCL4 production”. Besides, in data set [3], the “inhibition of CCL3 production” value is reported as “closely resembles that of TNF-α”. In addition, the ERK1/2 phosphorylation result on human A2AR [4] is recorded as “increased ERK1/2 phosphorylation”. Moreover, the half-life in data set [5] was 15 h. In addition, the “inhibition of TNF-α production as single agent” value in data set [6] (LPS-stimulated A2AR intact monocytes, absence of ADA) is recorded as “dose-dependently inhibited TNF-α production”. The inhibition at 30 µM in data set [6] (read-out: inhibition of LPS-stimulated TNF-α production, A2AR deficient monocytes, absence of ADA, 30 μM, 4 h) stood at 5.2 ± 1.3%; in data set [6] (read-out: inhibition of LPS-stimulated TNF-α production, A2AR deficient monocytes, presence of ADA 3 U/ml, 30 μM, 4 h), 5.2 ± 2.2%; in data set [6] (read-out: inhibition of LPS-stimulated TNF-α production, A2AR intact monocytes, absence of ADA, 30 μM, 4 h), 18.6 ± 3.7%; in data set [6] (read-out: inhibition of LPS-stimulated TNF-α production, A2AR intact monocytes, presence of ADA 3 U/ml, 30 μM, 4 h), 13.2 ± 1.9%. The inhibition at 100 µM in data set [6] (read-out: inhibition of LPS-stimulated TNF-α production, A2AR deficient monocytes, absence of ADA, 100 μM, 4 h) amounted to 16.3 ± 0.7%; in data set [6] (read-out: inhibition of LPS-stimulated TNF-α production, A2AR deficient monocytes, presence of ADA 3 U/ml, 100 μM, 4 h) it was 12.4 ± 1.2%; in data set [6] (read-out: inhibition of LPS-stimulated TNF-α production, A2AR intact monocytes, absence of ADA, 100 μM, 4 h), 30.1 ± 1.3%; in data set [6] (read-out: inhibition of LPS-stimulated TNF-α production, A2AR intact monocytes, presence of ADA 3 U/ml, 100 μM, 4 h) it was 16.8 ± 1.6%.
As for `CCNC(=O)[C@H]1O[C@@H](n2cnc3c(N)nc(NCCc4ccc(CCC(=O)O)cc4)nc32)[C@H](O)[C@@H]1O` [CGS 21680, 4-[2-[[6-Amino-9-(N-ethyl-β-D-ribofuranuronamidosyl)-9H-purin-2-yl]amino]ethyl] benzenepropanoic acid hydrochloride], the “inhibition of TNF-α production” value amounted to 6.7% in data set [6] (LPS-stimulated A2AR deficient monocytes, absence of ADA) and 39% in data set [6] (LPS-stimulated A2AR-intact monocytes, absence of ADA).
